# Experimental data published in patent US12552846B2, “Modified BCL9 mimetic peptides” (Sapience Therapeutics, Inc., priority 2019, dated 2026).
# Square brackets hold non-standard residues; d marks the D form. Peptide text beside a SMILES is read from it.
# Test system: HL60 promyelocytic leukemia cells
# Experiment: Cytotoxicity assay in HL60 cells (Annexin V FITC / PI flow cytometry)
# Assay type: cell-based
# Settings: 48 hours, 0-80 μM, % Viability (Annexin V low, PI low)
# Description: We examined the cytotoxicity of peptides BCL-26 and BCL-27 using an assay in HL60 promyelocytic leukemia cells. HL60 PML suspension cells were set at a density of 3.5×10^3 cells/well in 150 μL of RPMI+1.5% fetal bovine serum (FBS) in a 96 well dish. BCL-26 or BCL-27, reconstituted at a concentration of 10 mg/mL in 20 mM His, pH 7.5, was added to each well at a volume of 50 μL to a final concentration range of 0-80 μM. Cells were incubated with peptide for 48 hours at 37° C. Cell viability was quantified by flow cytometry using abcam Annexin V FITC apoptosis detection kit. Briefly, cells were washed with PBS and resuspended in 1× assay buffer containing Annexin V FITC and propidium iodide (PI). Annexin V detects apoptotic cells, and PI stains dead cells. After staining, apoptotic cells show green fluorescence, dead cells show red and green fluorescence, and live cells show little or no fluorescence. Cells were selected for analysis based on forward scatter (FSC) vs. side scatter (SSC), and analyzed by BD Accuri C6 Plus flow cytometer to detect Annexin V-FITC binding (Ex=488 nm; Em=530 nm) using FITC signal detector and PI staining by the phycoerythrnn emission signal detector. Percentage of Annexin V^low and PI^low were quantified and presented as % Viability.
# We examined the cytotoxicity of additional retro inverso and mixed chirality BCL9 mimetic peptides in HL60 cells using the assay described above.
row,Structure (SMILES),EC50 [nM]
1,CC(C)C[C@@H](NC(=O)[C@@H](CCCNC(=N)N)NC(=O)[C@@H](C)NC(=O)[C@@H](CC(C)C)NC(=O)[C@@H](CCC(N)=O)NC(=O)[C@@H](CCCNC(=N)N)NC(=O)[C@H](NC(=O)[C@@H](CC(C)C)NC(=O)[C@@H](Cc1c[nH]c2ccccc12)NC(=O)[C@H](Cc1c[nH]c2ccccc12)NC(=O)[C@H](N)Cc1ccccc1)C(C)C)C(=O)N[C@H](C)C(=O)N[C@H](CCC(N)=O)C(=O)N[C@H](CC(C)C)C(=O)N[C@H](C)C(=O)N[C@H](CCCCN)C(=O)N[C@H](CC(C)C)C(=O)N[C@@H](C(=O)N1CCC[C@@H]1C(=O)N[C@@H](C(=O)O)C(C)C)[C@H](C)O [BCL-131] (H-[dF]W[dW][dL][dV][dR][dQ][dL][dA][dR][dL][dA][dQ][dL][dA][dK][dL][dT][dP][dV]-OH; N-terminus and C-terminus assumed),< 2000
2,CC(C)C[C@@H](NC(=O)[C@@H](CCCNC(=N)N)NC(=O)[C@@H](C)NC(=O)[C@@H](CC(C)C)NC(=O)[C@@H](CCC(N)=O)NC(=O)[C@@H](CCCNC(=N)N)NC(=O)[C@@H](CC(C)C)NC(=O)[C@@H](CC(C)C)NC(=O)[C@@H](Cc1c[nH]c2ccccc12)NC(=O)[C@H](N)Cc1c[nH]c2ccccc12)C(=O)N[C@H](C)C(=O)N[C@H](CCC(N)=O)C(=O)N[C@H](CC(C)C)C(=O)N[C@H](C)C(=O)N[C@H](CCCCN)C(=O)N[C@H](CC(C)C)C(=O)N[C@@H](C(=O)N1CCC[C@@H]1C(=O)N[C@@H](C(=O)O)C(C)C)[C@H](C)O [BCL-128] (H-[dW][dW][dL][dL][dR][dQ][dL][dA][dR][dL][dA][dQ][dL][dA][dK][dL][dT][dP][dV]-OH; N-terminus and C-terminus assumed),< 2000
3,CC(C)C[C@@H](NC(=O)[C@@H](Cc1c[nH]c2ccccc12)NC(=O)[C@H](CCCNC(=N)N)NC(=O)[C@H](N)Cc1ccccc1)C(=O)N[C@H](C)C(=O)N[C@H](CCCNC(=N)N)C(=O)N[C@H](CCC(N)=O)C(=O)N[C@H](CC(C)C)C(=O)N[C@H](C)C(=O)N[C@H](CCCNC(=N)N)C(=O)N[C@H](CC(C)C)C(=O)N[C@H](C)C(=O)N[C@H](CCC(N)=O)C(=O)N[C@H](CC(C)C)C(=O)N[C@H](C)C(=O)N[C@H](CCCCN)C(=O)N[C@H](CC(C)C)C(=O)N[C@@H](C(=O)N1CCC[C@@H]1C(=O)N[C@@H](C(=O)O)C(C)C)[C@H](C)O [BCL-129] (H-[dF]R[dW][dL][dA][dR][dQ][dL][dA][dR][dL][dA][dQ][dL][dA][dK][dL][dT][dP][dV]-OH; N-terminus and C-terminus assumed),< 2000
4,CC(C)C[C@@H](NC(=O)[C@@H](Cc1c[nH]c2ccccc12)NC(=O)[C@H](N)Cc1c[nH]c2ccccc12)C(=O)N[C@H](C)C(=O)N[C@H](CCCNC(=N)N)C(=O)N[C@H](CCC(N)=O)C(=O)N[C@H](CC(C)C)C(=O)N[C@H](C)C(=O)N[C@H](CCCNC(=N)N)C(=O)N[C@H](CC(C)C)C(=O)N[C@H](C)C(=O)N[C@H](CCC(N)=O)C(=O)N[C@H](CC(C)C)C(=O)N[C@H](C)C(=O)N[C@H](CCCNC(=N)N)C(=O)N[C@H](CCC(=O)O)C(=O)N[C@H](CCCNC(=N)N)C(=O)N[C@H](Cc1c[nH]cn1)C(=O)N[C@H](CCC(=O)O)C(=O)N[C@H](CC(C)C)C(=O)N[C@H](CCC(N)=O)C(=O)N[C@H](CCC(=O)O)C(=O)N[C@H](CCC(N)=O)C(=O)N[C@H](CO)C(=O)N[C@H](CC(C)C)C(=O)N[C@H](CCCCN)C(=O)N[C@H](CC(C)C)C(=O)N[C@@H](C(=O)N1CCC[C@@H]1C(=O)N[C@@H](C(=O)O)C(C)C)[C@H](C)O [BCL-84] (H-[dW][dW][dL][dA][dR][dQ][dL][dA][dR][dL][dA][dQ][dL][dA][dR][dE][dR][dH][dE][dL][dQ][dE][dQ][dS][dL][dK][dL][dT][dP][dV]-OH; N-terminus and C-terminus assumed),< 2000
5,CC(C)C[C@@H](NC(=O)[C@H](N)Cc1c[nH]c2ccccc12)C(=O)N[C@H](CC(C)C)C(=O)N[C@H](C)C(=O)N[C@H](CCCNC(=N)N)C(=O)N[C@H](CCC(N)=O)C(=O)N[C@H](CC(C)C)C(=O)N[C@H](C)C(=O)N[C@H](CCCNC(=N)N)C(=O)N[C@H](CC(C)C)C(=O)N[C@H](C)C(=O)N[C@H](CCC(N)=O)C(=O)N[C@H](CC(C)C)C(=O)N[C@H](C)C(=O)N[C@H](CCCCN)C(=O)N[C@H](CC(C)C)C(=O)N[C@@H](C(=O)N1CCC[C@@H]1C(=O)N[C@@H](C(=O)O)C(C)C)[C@H](C)O [BCL-82] (H-[dW][dL][dL][dA][dR][dQ][dL][dA][dR][dL][dA][dQ][dL][dA][dK][dL][dT][dP][dV]-OH; N-terminus and C-terminus assumed),2000 to 10000
6,CC(C)C[C@@H](NC(=O)[C@@H](CCC(N)=O)NC(=O)[C@@H](C)NC(=O)[C@@H](CC(C)C)NC(=O)[C@@H](CCCNC(=N)N)NC(=O)[C@@H](C)NC(=O)[C@@H](CC(C)C)NC(=O)[C@@H](CCC(N)=O)NC(=O)[C@@H](CCCNC(=N)N)NC(=O)[C@@H](C)NC(=O)[C@@H](CC(C)C)NC(=O)[C@@H](Cc1c[nH]c2ccccc12)NC(=O)[C@@H](Cc1c[nH]c2ccccc12)NC(=O)CNC(=O)[C@@H](CCCNC(=N)N)NC(=O)CNC(=O)[C@@H](CC(=O)O)NC(=O)[C@@H](CO)NC(=O)[C@H]1CCCN1)C(=O)N[C@H](C)C(=O)O [BCL-92] (H-[dP][dS][dD]G[dR]G[dW][dW][dL][dA][dR][dQ][dL][dA][dR][dL][dA][dQ][dL][dA]-OH; N-terminus and C-terminus assumed),2000 to 10000
7,CC(C)C[C@@H](NC(=O)[C@@H](Cc1c[nH]c2ccccc12)NC(=O)[C@H](N)Cc1c[nH]c2ccccc12)C(=O)N[C@H](C)C(=O)N[C@H](CCCNC(=N)N)C(=O)N[C@H](CCC(N)=O)C(=O)N[C@H](CC(C)C)C(=O)N[C@H](CCC(=O)O)C(=O)N[C@H](CCCNC(=N)N)C(=O)N[C@H](CC(C)C)C(=O)N[C@H](C)C(=O)N[C@H](CCCNC(=N)N)C(=O)N[C@H](CC(C)C)C(=O)N[C@H](C)C(=O)N[C@H](CCCCN)C(=O)N[C@H](CC(C)C)C(=O)N[C@@H](C(=O)N1CCC[C@@H]1C(=O)N[C@@H](C(=O)O)C(C)C)[C@H](C)O [BCL-86] (H-[dW][dW][dL][dA][dR][dQ][dL][dE][dR][dL][dA][dR][dL][dA][dK][dL][dT][dP][dV]-OH; N-terminus and C-terminus assumed),< 2000
8,CC(C)C[C@@H](NC(=O)[C@@H](C)NC(=O)[C@@H](C)NC(=O)[C@@H](CC(C)C)NC(=O)[C@@H](CCC(N)=O)NC(=O)[C@@H](CCCNC(=N)N)NC(=O)[C@@H](C)NC(=O)[C@@H](CC(C)C)NC(=O)[C@@H](Cc1c[nH]c2ccccc12)NC(=O)[C@H](Cc1c[nH]c2ccccc12)NC(=O)[C@H](N)Cc1ccccc1)C(=O)N[C@H](C)C(=O)N[C@H](CCC(N)=O)C(=O)N[C@H](CC(C)C)C(=O)N[C@H](C)C(=O)N[C@H](CCCCN)C(=O)N[C@H](CC(C)C)C(=O)N[C@@H](C(=O)N1CCC[C@@H]1C(=O)N[C@@H](C(=O)O)C(C)C)[C@H](C)O [BCL-133] (H-[dF]W[dW][dL][dA][dR][dQ][dL][dA][dA][dL][dA][dQ][dL][dA][dK][dL][dT][dP][dV]-OH; N-terminus and C-terminus assumed),< 2000
9,CC(C)C[C@@H](NC(=O)[C@@H](Cc1ccccc1)NC(=O)[C@H](N)Cc1c[nH]c2ccccc12)C(=O)N[C@H](C)C(=O)N[C@H](CCCNC(=N)N)C(=O)N[C@H](CCC(N)=O)C(=O)N[C@H](CC(C)C)C(=O)N[C@H](C)C(=O)N[C@H](CCCNC(=N)N)C(=O)N[C@H](CC(C)C)C(=O)N[C@H](C)C(=O)N[C@H](CCC(N)=O)C(=O)N[C@H](CC(C)C)C(=O)N[C@H](C)C(=O)N[C@H](CCCCN)C(=O)N[C@H](CC(C)C)C(=O)N[C@@H](C(=O)N1CCC[C@@H]1C(=O)N[C@@H](C(=O)O)C(C)C)[C@H](C)O [BCL-81] (H-[dW][dF][dL][dA][dR][dQ][dL][dA][dR][dL][dA][dQ][dL][dA][dK][dL][dT][dP][dV]-OH; N-terminus and C-terminus assumed),2000 to 10000
10,CC(C)C[C@@H](NC(=O)[C@@H](Cc1c[nH]c2ccccc12)NC(=O)[C@H](N)Cc1c[nH]c2ccccc12)C(=O)N[C@H](C)C(=O)N[C@H](CCCNC(=N)N)C(=O)N[C@H](CCC(N)=O)C(=O)N[C@H](CC(C)C)C(=O)N[C@H](C)C(=O)N[C@H](CCCNC(=N)N)C(=O)N[C@H](CC(C)C)C(=O)N[C@H](CCCCN)C(=O)N[C@H](CCC(N)=O)C(=O)N[C@H](CC(C)C)C(=O)N[C@H](C)C(=O)N[C@H](CCCCN)C(=O)N[C@H](CC(C)C)C(=O)N[C@@H](C(=O)N1CCC[C@@H]1C(=O)N[C@@H](C(=O)O)C(C)C)[C@H](C)O [BCL-89] (H-[dW][dW][dL][dA][dR][dQ][dL][dA][dR][dL][dK][dQ][dL][dA][dK][dL][dT][dP][dV]-OH; N-terminus and C-terminus assumed),2000 to 10000
11,CC(C)C[C@@H](NC(=O)[C@@H](Cc1c[nH]c2ccccc12)NC(=O)[C@H](N)Cc1ccccc1)C(=O)N[C@H](C)C(=O)N[C@H](CCCNC(=N)N)C(=O)N[C@H](CCC(N)=O)C(=O)N[C@H](CC(C)C)C(=O)N[C@H](C)C(=O)N[C@H](CCCNC(=N)N)C(=O)N[C@H](CC(C)C)C(=O)N[C@H](C)C(=O)N[C@H](CCC(N)=O)C(=O)N[C@H](CC(C)C)C(=O)N[C@H](C)C(=O)N[C@H](CCCCN)C(=O)N[C@H](CC(C)C)C(=O)N[C@@H](C(=O)N1CCC[C@@H]1C(=O)N[C@@H](C(=O)O)C(C)C)[C@H](C)O [BCL-79] (H-[dF][dW][dL][dA][dR][dQ][dL][dA][dR][dL][dA][dQ][dL][dA][dK][dL][dT][dP][dV]-OH; N-terminus and C-terminus assumed),< 2000
